Results from patent publication US20160000750A1, “COMBINATION OF EGCG OR METHYLATED EGCG AND A PDE INHIBITOR” (KYUSHU UNIVERSITY, NATIONAL UNIVERSITY CORPORATION, priority 2010, published 2016).

Experiments:
TLR 4 = assay: TLR4 expression in RAW 264.7 by Western blotting; type: cell-based, mouse; conditions: vardenafil 5 μM, EGCG 10 μM added after 3 hours, 24 hours, untreated = 100
Protocol: (§1) A mouse macrophage cell line, RAW 264.7, was seeded in a 5-mL dish at 1×10^5 cells/mL and was pre-cultured in a DMEM medium supplemented with 1% FCS for 24 hours. Subsequently, vardenafil was added thereto at a concentration of 5 μM. After 3 hours, EGCG was added thereto at a concentration of 0 μM or 10 μM. After 24 hours, the cells were collected, and the expressions of Toll-like receptor (TLR) 2 and TLR 4 were measured by Western blotting.

[1] = system: Toll-like receptor (TLR) 2; assay: TLR2 expression in RAW 264.7 by Western blotting; type: cell-based, mouse; conditions: vardenafil 5 μM, EGCG 10 μM added after 3 hours, 24 hours, untreated = 100
Protocol: as §1

SMILES: CCCc1nc(C)c2c(=O)[nH]c(-c3cc(S(=O)(=O)N4CCN(CC)CC4)ccc3OCC)nn12 [vardenafil]
- TLR4 expression level(%) (TLR 4): 112%
- TLR2 expression level(%) [1]: 112%
